Results published in patent publication US12522575B2, “2-diarylmethyl-4-aminotetrahydropyran derivatives and related compounds as anticancer, antiinflammatory, antifibrotic and neuroprotective agents” (Atux Iskay LLC, priority 2021, dated 2026).

Experiments:
[1] = test system: lung fibroblasts from healthy subjects; test: Fibrosis associated gene expression in lung fibroblasts; format: cell-based; details: 1 μM, 24 hours, TGF-β (FIG. 1)
Description: Each dot represents cells from a different subject. Student t-tests or 2-way ANOVA were performed and a p-value […] was denoted as * when comparing to the vehicle treated groups or ** when comparing to the TGF-β vehicle groups.
Compounds of the present invention activate PP2A responses in fibroblasts from healthy subjects. Lung fibroblasts from 6 subjects were stimulated with 1 micromolar of example compounds for 24 hours.

[2] = test system: bleomycin-induced pulmonary fibrosis; test: Bleomycin induced lung fibrosis model in mice; format: in vivo
Source text: Bleomycin exposure reproducibly induces lung fibrosis in mice and bleomycin induced lung fibrosis is commonly used as an animal model to assess the efficacy of experimental therapeutics for idiopathic pulmonary fibrosis, see for example Tashiro et al, “Exploring Animal Models that Resemble Idiopathic Pulmonary Fibrosis”, Front. Med. 4:118 (2017). doi: 10.3389/fmed.2017.0018. Herein presented are data on the efficacy of Example 6 (Ex-6) in cellular models of lung fibrosis and in a mouse bleoycin induced lung fibrosis model, see FIGS. 1 through 8.
In brief, the animal model consisted of bleomycin administration using a combined protocol previously described by Wyman et al (Wyman, A. E., et al., “Sirtuin 7 is decreased in pulmonary fibrosis and regulates the fibrotic phenotype of lung fibroblasts”. Am J Physiol Lung Cell Mol Physiol, 2017. 312 (6): p. L945-L958.) and Geraghty et al (Geraghty, P. and Foronjy, R. ‘Protein Transfection of Mouse Lung’. J Vis Exp, (75), e50080 2013 May 15). After sedation was achieved (87.5 mg/kg Ketamine/12.5 mg/kg xylazine), mice were suspended from their upper incisors (see Geraghty et al. for visual publication of intratracheal delivery). The oropharynx was opened so that a catheter/Penn Century MicroSprayer (Penn-Century, Wyndmoor, Philadelphia, PA) can be introduced into the trachea. The vocal cords and trachea were visualized by placing a light source against the trachea of the mouse. The MicroSprayer was inserted intratracheally, and the bleomycin solution (0.075 U/mouse) was instilled in 50 μL of sterile PBS. The MicroSprayer creates a mist rather than droplets, for better tissue distribution and reduces the risk of animal suffocation. Control mice were instilled with 50 μl of sterile PBS with no additives. This intratracheal maneuvering and delivery took about 30 seconds to complete. Animals were allowed to recover from sedation. Water was supplemented with the compound/drug beginning either before, 7 or 20 days after bleomycin treatment.
Ex-6 was dosed at 5 mg/kg in the bleomycin induced fibrosis. In vivo data is shown in FIG. 3: C57BL/6J mice were orally administered 5 mg/kg Ex-6 once daily, beginning on the same day as bleomycin (BLM) treatment to test if activation of PP2A could prevent establishment of idiopathic pulmonary fibrosis (IPF). […] Differences were shown in compliance, tissue elastance, and forced vital capacity of 3-month-old C57BL/6J mice following administration of vehicle or Example 6 after tracheal instillation of saline or bleomycin, indicating prevention of bleomycin-induced pulmonary fibrosis in mice by administration of Example 6. Graphs were represented as mean±S.E.M, where n=7 animals per group. P values, shown when comparing both treatments connected by a line, were determined by Student t-tests. […]

PP2A = PP2A responses in lung fibroblasts; format: cell-based; details: 1 μM, 24 hours
Description: Each dot represents cells from a different subject. Student t-tests or 2-way ANOVA were performed and a p-value […] was denoted as * when comparing to the vehicle treated groups.
Each dot represents cells from a different subject. Student t-tests were performed and a p-value […] was denoted as * when comparing non-smoker (NS) to IPF vehicle groups or ** when comparing vehicle IPF to compound IPF groups. Left plot: cell source-healthy non-smoker; Middle plot: cell source—IPF; Right: cell source—IPF.
IPF fibroblasts were exposed to v or 1 micromolar of the ATUX compounds media for 24 hours and increase in PP2A activity is shown in right hand group. PP2A activity in vehicle treated fibroblasts from healthy nonsmokers is shown for comparison in the left hand group.

[3] = test system: phosphatase activity in ApoE transfected A172 glioblastoma cells; test: Cellular in vitro phosphatase activation assay (Malachite Green) in ApoE transfected A172 cells; format: cell-based; details: 24 hours
Description: Cellular in vitro phosphatase activation assay was performed using the method of Theendakara et al, Molecular and Cellular Neuroscience, 83 (2017), pages 83-91 which is described below:
A172 glioblastoma cells were cultured in Dulbecco's modified Eagle's medium (DMEM) supplemented with 10% fetal bovine serum and 1% Penicillin-streptomycin. Incubation was performed at 37° C. and 5% CO2.
A172 cells were seeded at 5×10^5 cells/2.5 ml growth medium (without antibiotics) per well on 6-well tissue culture plates. Cells were incubated overnight to allow them to recover and reattach. […]
After 24 hrs, cells were washed twice with imidazole buffer and lysed using NP-40 Lysis buffer. […] The amount of phosphate release in the assay was determined by measuring absorbance at 620 nm using the Spectramax i3x plate reader.
The absorbance intensity data were analyzed using the computer software Graphpad Prism. The phosphate concentration for each sample was determined from the standard curve using phosphate standard concentrations. In order to compare samples, the first set (column A) were there was no transfection performed and no compound added, was designated a baseline; the absorbance measurement in this column was set as 100% phosphatase activity.

## O=S(=O)(NC1CCOC(C2c3ccc(F)cc3CCc3cc(F)ccc32)C1)c1ccc(OC(F)(F)F)cc1 (centres unmarked) [Example 6, N-(2-(2,8-difluoro-10,11-dihydro-5H-dibenzo[a,d][7]annulen-5-yl)tetrahydro-2H-pyran-4-yl)-4-(trifluoromethoxy)benzenesulfonamide]
[1]
  pro-fibrotic gene expression: suppression of pro-fibrotic gene expression
[2]; 5 mg/kg orally once daily from the day of bleomycin, C57BL/6J mice (FIG. 6)
  bleomycin-induced PV loop changes, compliance, tissue elastance and forced vital capacity (FVC): prevented
[2]; bleomycin mice, vs vehicle control (FIG. 7)
  collagen deposition in lung (trichrome staining): attenuates collagen deposition
[2]; bleomycin mice, vs vehicle control (FIG. 8)
  bleomycin-induction of fibrosis related genes Acta2, Ccn2, Col1a1, FN1 in lung tissue: suppressed
[2]; three-week administration, vs vehicle groups
  toxicity in mice (external appearance, behavior, body weight): no obvious toxicity
PP2A; vs vehicle (FIG. 4)
  PP2A responses in lung fibroblasts from healthy subjects: reactivation of PP2A responses
PP2A; vs vehicle IPF (FIG. 5)
  PP2A responses in lung fibroblasts from idiopathic pulmonary fibrosis (IPF): reactivation of PP2A responses
[3]
  % increase from ApoE transfected cell at 5 μM test compound concentration: 6.8%
